# Results taken from PubChem BioAssay AID179 (DTP/NCI, 2004).
# Where “and” joins values, the source holds several entries; their conditions need not be identical. Equal values may be shown once. Calls of active or inactive are those of the source.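 The calls were made as follows: active = compounds giving half or more protection of infected cells from virus-caused growth loss, again on retest; inactive = the rest.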
# System: CEM cells HIV-1 protection, formazan growth assay
# Assay: NCI AIDS Antiviral Assay
# Conditions: for IC50: measured here: growth of uninfected CEM cells
# Procedure, shortened: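 Five concentrations of each compound were applied to infected and uninfected human CEM cells. Protection from HIV-1 was judged from growth measured with a soluble formazan assay.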
Compound,EC50,IC50,outcome
Clc1cccc(N=C/C=C/Nc2cccc(Cl)c2)c1,> 200 µM,30.9 µM,–
CCc1cc(C(N)=S)ccn1,> 200 µM,> 200 µM,–
C=CC1CCC[N+]1(CC(=O)OCC)Cc1ccccc1 (stereo not drawn),> 200 µM,> 200 µM,–
COc1ccc2nc3cccc([N+](=O)[O-])c3c(NCCCO)c2c1,> 2 µM,0.017 µM,–
Cc1nc2ccc(Cl)cc2c(Cl)c1CCCl,> 200 µM,10.7 µM,–
O=c1oc2ccccc2c(O)c1Cc1c(O)c2ccccc2oc1=O,> 200 µM,55 µM and > 200 µM,–
Cc1c(C(N)=C(C#N)C#N)c(=N)oc2ccccc12,> 200 µM,36.3 µM,–
CN(C)Cc1cc(N=Nc2ccc(Cl)cc2)ccc1OC(=O)c1ccccc1,> 200 µM,14.5 µM,–
Cc1ccc(S(=O)(=O)OCC23CCC(C2)C2CC23)cc1 (stereo not drawn),> 100 µM,> 100 µM,–
C/C1=C\[C@@H](O)C(=O)/C=C/C=C\c2csc(n2)[C@@H](C)NC(=O)C[C@@]2(CC1)S(=O)SC(=O)[C@]2(C)O (stereo partly drawn),> 1.32 µM,0.0055 µM,–
Cc1nc2ccccc2c(=O)n1N1C2CCCC21 (stereo not drawn),> 200 µM,> 200 µM,–
COc1ccc(-c2c(C#N)c(N)n(C3OC(CO)C(O)C(O)C3O)c(=S)c2C#N)cc1 (stereo not drawn),> 200 µM,95.5 µM and 129 µM,–
CCc1ccc(/C(=N\NC(N)=S)C2CC2)cc1,> 200 µM,110 µM,–
CC(C)(C)OC(=O)N[C@@H](Cc1ccccc1)CN1CCCC1C(=O)O (stereo partly drawn),> 3390 µM,2570 µM,–
O=C1NC23CC=CCC12CCC3 (stereo not drawn),> 1230 µM,> 1230 µM,–
Cc1cccc(Nc2nc3ccccc3nc2NS(=O)(=O)c2ccccc2)c1,> 100 µM,15.5 µM,–
CCOc1ccc(N=NC2C(=O)N(C(=O)CC(=O)Nc3ccccc3OC)N=C2C)cc1 (stereo not drawn),> 200 µM,7.24 µM,–
COc1ccc(N2C(=O)/C(=C/c3ccc(N(CCC#N)CCC#N)cc3C)N=C2c2cc([N+](=O)[O-])ccc2Cl)cc1,> 12.6 µM,3.02 µM,–

Compound,EC50,IC50,outcome
O=C(Nc1ccccc1C(=O)NCc1ccccc1)/C(=C/c1ccccc1O)NC(=O)c1ccccc1,–,–,inactive
Cc1ccc(NC(=O)CCc2nnc3s/c(=C\C=C\c4ccccc4)c(=O)n23)cc1,> 61.7 µM,> 61.7 µM,–
Clc1ccccc1C1=NN(c2ccccc2)C2c3cc(Br)ccc3OCC12 (stereo not drawn),> 81.3 µM,> 81.3 µM,–
O=C(O)c1cc(=O)c2cc3c(cc2o1)OCc1ccccc1-3,> 93.3 µM,> 93.3 µM,–
C#C[C@]1(O)CC[C@H]2[C@@H]3CCC4=C/C(=N/OC(=O)c5cccc6c(=O)c7ccccc7[nH]c56)CC[C@@H]4[C@H]3CC[C@@]21C,> 200 µM,30.9 µM,–
CC1(C)CCc2cc3c(cc2O1)OCC1c2cc(O)c(OCc4ccccc4)cc2OC31 (stereo not drawn),> 200 µM,23.4 µM,–
COC(=O)C(CCCC1(c2ccccc2)OCCO1)C(C)=O (stereo not drawn),> 200 µM,> 200 µM,–
O=c1/c(=C/c2ccccc2[N+](=O)[O-])sc2nnc(-c3ccco3)n12,> 29.5 µM,> 29.5 µM,–
O=C1Nc2ccccc2N2C(=O)CCC12 (stereo not drawn),> 1230 µM,617 µM,–
Cc1cc(CN(Cc2ccccc2)Cc2nc3ccccc3[nH]2)c(O)c(CN(Cc2nc3ccccc3[nH]2)Cc2nc3ccccc3[nH]2)c1,> 200 µM,24.5 µM,–
COC(=O)C1C2CCCN2OC1(C)CO (stereo not drawn),> 200 µM,> 200 µM,–
CCCN1C(=O)c2cc(=O)[nH]c(O)c2C1C (stereo not drawn),> 117 µM,81.3 µM,–
CN(C)c1ccc(/C=C(\C#N)C(=O)O)cc1,> 437 µM,219 µM,–
COC(=O)C(C(=O)C(=O)Nc1ccc(C)cc1C)c1csc(-n2nc(-c3ccccc3)cc2-c2ccccc2)n1 (stereo not drawn),> 158 µM,81.3 µM,–
CCC(C)C1C(=O)ON=C1N (stereo not drawn),> 200 µM,> 200 µM,–
Cc1ccc(S(=O)(=O)Oc2ccc3oc4c(CO)ccc(NCCN(C)C)c4c(=O)c3c2)cc1,> 38.9 µM,6.92 µM,–
CC(CO)C1=C(c2c[nH]c3ccccc23)C2C(C)C[C@H](O)C3(C)C(C)CCC(O)C23CC1 (stereo partly drawn),–,–,inactive
